The text below walks through data of PMC7720599, “Rhenium N-heterocyclic carbene complexes block growth of aggressive cancers by inhibiting FGFR- and SRC-mediated signalling” (Journal of Experimental & Clinical Cancer Research : CR, 2020).

In this series the test system is zebrafish embryos. Nature of the series: Zebrafish embryo teratogenicity. It is filed as in vivo. Particulars: treatment from 2hpf, images at 24hpf. The procedure:
Embryos were observed daily at 24 h intervals and toxicity scores (hatching and mortality) were recorded until 120hpf. For heart rate assessments, embryos were anesthetized with tricaine (ethyl 3-aminobenzoate methanesulfonate) at 48hpf and counted under the stereomicroscope for 1min. To assess JVG045 teratogenicity compared to BGJ398, embryos were treated with the compounds starting from 2hpf and results observed at 24hpf. Compounds were prepared in DMSO and diluted to the final concentration in E2 embryo medium. DMSO was used as negative control.

Each structure is given as a SMILES string.

Consider `CCN1CCN(c2ccc(Nc3cc(N(C)C(=O)Nc4c(Cl)c(OC)cc(OC)c4Cl)ncn3)cc2)CC1` [BGJ398, 3-(2,6-Dichloro-3,5-dimethoxy-phenyl)-1-{6-[4-(4-ethyl-piperazin-1-yl)-phenylamino]-pyrimidin-4-yl}-1-methyl-urea], for which the “concentration at which developmental defects start” value was in the range of 500 to 1000 nM.
